Results reported in ChEMBL document CHEMBL1201862, “PubChem BioAssay data set” (2004).
Active and inactive are the calls of the source.

Assays:
HEK293 [1] = assay: cells; details: Homo sapiens
Tumor necrosis factor = Tumor necrosis factor (Homo sapiens, UniProt P01375); assay: analog potency on TNFa NF-kB signaling – cell-based, revised, SAR follow-up (AID 2337); format: functional
[2] = biological target: Nucleotide-binding oligomerization domain-containing protein 2 (Homo sapiens, UniProt Q9HC29); assay: PubChem AID 2334; format: functional
[3] = biological target: Nucleotide-binding oligomerization domain-containing protein 1 (Homo sapiens, UniProt Q9Y239); assay: blockers of NOD1 pathway activity – revised, SAR follow-up (AID 2333); format: functional
[4] = restored growth of temperature-sensitive Burl-1 yeast – whole organism, S. cerevisiae, Burl-1 ts mutant, luminescence, counter-screen for SUMOylation pathway inhibitor project, dose response (AID 463199); format: functional
[5] = biological target: Sphingosine 1-phosphate receptor 4 (Homo sapiens, UniProt O95977); assay: Fluorescence dose response cell-based high throughput screening assay for agonists of the Sphingosine 1-Phosphate Receptor 4 (S1P4). [Related pubchem assays: 1509 (Primary screen.), 1523 (Confirmation screen in triplicates.)]; format: functional
[6] = biological target: Sphingosine 1-phosphate receptor 3 (Homo sapiens, UniProt Q99500); assay: (§1) Late-stage fluorescence-based dose-response cell-based assay to identify agonists of the Sphingosine 1-Phosphate Receptor 4 (S1P4): Sphingosine 1-Phosphate Receptor 3 (S1P3) counterscreen assay. [Related pubchem assays (depositor defined):AID1509, AID1523, AID1563, AID1686, AID1701, AID1801, AID463107, AID463225, AID504400]; format: functional
[7] = biological target: T1, Sphingosine 1-phosphate receptor 1 (Homo sapiens, UniProt P21453); assay: Fluorescence-based counterscreen assay for S1P4 agonists: Cell-based dose response high throughput screening assay to identify agonists of the Sphingosine 1-Phosphate Receptor 1 (S1P1). [Related pubchem assays (depositor defined):AID1509, AID1523, AID1801, AID463107, AID463118, AID463119, AID463122, AID463123, AID463129, AID463225, AID504400, AID504460]; format: functional
[8] = biological target: T1, Sphingosine 1-phosphate receptor 1; assay: as §1, with “1 (S1P1)” for “3 (S1P3)”; format: functional
[9] = biological target: Sphingosine 1-phosphate receptor 2 (Homo sapiens, UniProt O95136); assay: as §1, with “2 (S1P2)” for “3 (S1P3)”; format: functional
[10] = biological target: Sphingosine 1-phosphate receptor 5 (Homo sapiens, UniProt Q9H228); assay: as §1, with “5 (S1P5)” for “3 (S1P3)”; format: functional
HEK293 [11] = assay: SAR Analysis of small molecule inhibitors of T-cell specific antigen receptor-induced NF-kB activation in a HEK-293T cell line using a luminescence assay - Set 2. [Related pubchem assays (depositor defined):AID435003, AID435012, AID489026]; format: functional, cell-based; details: Homo sapiens
Jurkat = assay: SAR Analysis of small molecule inhibitors of T-cell specific antigen receptor-induced NF-kB activation in a Jurkat cell line using a luminescence assay - Set 2. [Related pubchem assays (depositor defined):AID435003, AID435012, AID465]; format: functional, cell-based; details: Homo sapiens
HEK293 [12] = assay: HEK293T cell viability loss, resazurin readout – resazurin fluorescence, cytotoxicity control for NF-kB activator project, SAR follow-up (AID 493251); format: functional, cell-based; details: Homo sapiens
[13] = Counterscreen for AddAB inhibitors: absorbance-based bacterial cell-based high throughput dose response assay for inhibitors of bacterial viability. [Related pubchem assays (depositor defined):AID435030, AID449728, AID449731, AID488942, AID488955, AID488956]; format: functional
Exodeoxyribonuclease V = Exodeoxyribonuclease V (Escherichia coli (strain K12), UniProt P04993+P07648+P08394); assay: RecBCD inhibition via phage-restricted bacterial growth – absorbance, V66 E. coli, mutant T4 phage, counter-screen for AddAB inhibitor project, dose response (AID 492957); format: functional, cell-based, Escherichia coli str. K-12 substr. MG1655
[14] = biological target: T2, Microphthalmia-associated transcription factor (Homo sapiens, UniProt O75030); assay: reducers of TRPM1 reporter luminescence, concentration series – cell-based, SK-MEL-5, cherry-picked, set 3, MITF inhibitor project, dose response (AID 493073); format: functional;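 also: SK-MEL-5 melanoma cells with luciferase driven by the MITF target TRPM1 promoter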
T2 sequence (O75030 whole entry): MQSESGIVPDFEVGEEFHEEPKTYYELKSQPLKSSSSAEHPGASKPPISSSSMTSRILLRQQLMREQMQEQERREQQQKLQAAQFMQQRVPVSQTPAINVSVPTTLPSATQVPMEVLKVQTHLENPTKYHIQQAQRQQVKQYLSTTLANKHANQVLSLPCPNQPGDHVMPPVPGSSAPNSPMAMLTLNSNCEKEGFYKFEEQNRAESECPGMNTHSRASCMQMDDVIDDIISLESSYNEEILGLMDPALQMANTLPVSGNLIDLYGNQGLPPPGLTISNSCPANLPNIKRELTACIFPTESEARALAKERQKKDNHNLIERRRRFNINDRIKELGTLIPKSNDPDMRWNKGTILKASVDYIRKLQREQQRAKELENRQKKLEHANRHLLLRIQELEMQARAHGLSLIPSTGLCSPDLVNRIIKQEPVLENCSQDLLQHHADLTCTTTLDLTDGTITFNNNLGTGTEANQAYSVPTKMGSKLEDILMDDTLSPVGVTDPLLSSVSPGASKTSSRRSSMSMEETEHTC

Cytochrome P450 2C9 = Cytochrome P450 2C9 (Homo sapiens, UniProt P11712)
[15] = Luminescence Cell-Based Dose Retest to Confirm Inhibitors of Cancer Stem Cells. [Related pubchem assays (depositor defined):AID2717, AID2721]; format: functional; details: Homo sapiens
[16] = viability loss of HMLE_sh_eGFP cells – cell-based, luminescence, counter-screen for HMLE_sh_ECad selective toxicity project, dose response (AID 463074); format: functional, Homo sapiens;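 also: HMLE human mammary epithelial cells expressing control shRNA against eGFP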
Cytochrome P450 2C19 = Cytochrome P450 2C19 (Homo sapiens, UniProt P33261); assay: Cytochrome panel assay with activity outcomes. Panel member name: p450-cyp2c19 Compounds with AC50 equal or less than 10 uM are considered active; format: functional
Cytochrome P450 2D6 = Cytochrome P450 2D6 (Homo sapiens, UniProt P10635);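 also: CYP2D6 member of a cytochrome P450 panel assay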
[17] = biological target: T3, Dual specificity protein phosphatase 3 (Homo sapiens, UniProt P51452); assay: VHR1 phosphatase inhibitors, biochemical (AID 1878)
[18] = biological target: T4, Dual specificity protein phosphatase 6 (Rattus norvegicus, UniProt Q64346); assay: inhibition of rat DUSP6 enzyme activity – biochemical, in vitro, primary screen (AID 425)
T4 sequence (Q64346 whole entry): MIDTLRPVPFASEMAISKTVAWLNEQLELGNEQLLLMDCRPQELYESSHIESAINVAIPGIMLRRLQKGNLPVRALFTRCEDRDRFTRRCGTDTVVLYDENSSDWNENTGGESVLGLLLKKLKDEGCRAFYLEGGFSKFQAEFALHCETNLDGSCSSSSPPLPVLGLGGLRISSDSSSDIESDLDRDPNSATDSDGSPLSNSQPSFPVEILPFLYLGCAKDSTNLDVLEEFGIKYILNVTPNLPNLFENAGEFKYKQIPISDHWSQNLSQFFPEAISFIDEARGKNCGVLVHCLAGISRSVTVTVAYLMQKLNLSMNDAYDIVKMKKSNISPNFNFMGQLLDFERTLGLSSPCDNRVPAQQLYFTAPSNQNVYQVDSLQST

[19] = biological target: T3, Dual specificity protein phosphatase 3; assay: VHR1 phosphatase inhibitors, primary screen, biochemical, absorbance, uHTS (AID 1654)

T3 sequence (P51452 whole entry): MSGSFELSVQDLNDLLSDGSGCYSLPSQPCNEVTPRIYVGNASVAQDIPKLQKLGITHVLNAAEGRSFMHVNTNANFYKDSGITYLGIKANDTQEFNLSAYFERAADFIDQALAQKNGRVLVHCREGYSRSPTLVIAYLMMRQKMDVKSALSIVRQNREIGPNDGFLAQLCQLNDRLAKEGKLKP
T1 sequence (P21453 whole entry): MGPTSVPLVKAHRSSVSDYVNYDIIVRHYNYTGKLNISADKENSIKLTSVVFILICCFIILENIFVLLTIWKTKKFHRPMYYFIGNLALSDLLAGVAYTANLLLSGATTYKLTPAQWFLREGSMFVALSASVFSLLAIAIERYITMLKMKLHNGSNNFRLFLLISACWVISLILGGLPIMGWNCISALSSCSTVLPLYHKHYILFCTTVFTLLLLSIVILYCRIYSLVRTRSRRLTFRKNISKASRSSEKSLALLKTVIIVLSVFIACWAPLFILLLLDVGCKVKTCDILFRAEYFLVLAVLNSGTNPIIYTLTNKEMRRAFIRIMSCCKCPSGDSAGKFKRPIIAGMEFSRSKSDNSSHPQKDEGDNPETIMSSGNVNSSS
Nucleotide-binding oligomerization domain-containing protein 2, sequence (Q9HC29 whole entry, the tested form may be a part): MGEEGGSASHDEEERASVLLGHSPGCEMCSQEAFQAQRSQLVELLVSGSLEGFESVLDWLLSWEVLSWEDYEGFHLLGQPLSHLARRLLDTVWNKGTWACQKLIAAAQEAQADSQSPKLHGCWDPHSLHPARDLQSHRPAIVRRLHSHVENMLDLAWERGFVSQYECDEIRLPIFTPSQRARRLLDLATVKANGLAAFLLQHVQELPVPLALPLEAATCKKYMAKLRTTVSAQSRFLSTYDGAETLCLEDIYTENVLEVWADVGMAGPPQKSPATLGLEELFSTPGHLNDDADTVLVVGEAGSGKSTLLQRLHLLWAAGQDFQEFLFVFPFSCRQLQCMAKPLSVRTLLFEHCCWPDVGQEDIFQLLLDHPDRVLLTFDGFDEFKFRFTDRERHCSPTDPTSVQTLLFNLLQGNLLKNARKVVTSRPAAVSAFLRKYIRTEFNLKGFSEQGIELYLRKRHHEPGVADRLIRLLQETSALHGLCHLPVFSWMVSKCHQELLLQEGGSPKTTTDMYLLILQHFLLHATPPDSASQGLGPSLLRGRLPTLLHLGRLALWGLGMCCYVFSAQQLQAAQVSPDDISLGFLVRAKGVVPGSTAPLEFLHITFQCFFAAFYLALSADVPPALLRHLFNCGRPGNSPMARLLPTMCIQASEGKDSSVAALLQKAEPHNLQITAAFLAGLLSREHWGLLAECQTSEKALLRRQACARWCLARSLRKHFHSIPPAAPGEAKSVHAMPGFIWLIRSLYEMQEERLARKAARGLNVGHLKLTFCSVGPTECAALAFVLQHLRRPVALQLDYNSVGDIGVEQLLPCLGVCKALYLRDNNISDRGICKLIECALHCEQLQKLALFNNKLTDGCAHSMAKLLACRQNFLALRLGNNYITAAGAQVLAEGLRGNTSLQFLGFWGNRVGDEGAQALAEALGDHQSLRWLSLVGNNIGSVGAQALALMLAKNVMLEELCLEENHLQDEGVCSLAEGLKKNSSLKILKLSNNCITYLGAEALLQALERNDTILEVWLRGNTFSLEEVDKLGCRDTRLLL
Cytochrome P450 2C19, sequence (P33261 whole entry): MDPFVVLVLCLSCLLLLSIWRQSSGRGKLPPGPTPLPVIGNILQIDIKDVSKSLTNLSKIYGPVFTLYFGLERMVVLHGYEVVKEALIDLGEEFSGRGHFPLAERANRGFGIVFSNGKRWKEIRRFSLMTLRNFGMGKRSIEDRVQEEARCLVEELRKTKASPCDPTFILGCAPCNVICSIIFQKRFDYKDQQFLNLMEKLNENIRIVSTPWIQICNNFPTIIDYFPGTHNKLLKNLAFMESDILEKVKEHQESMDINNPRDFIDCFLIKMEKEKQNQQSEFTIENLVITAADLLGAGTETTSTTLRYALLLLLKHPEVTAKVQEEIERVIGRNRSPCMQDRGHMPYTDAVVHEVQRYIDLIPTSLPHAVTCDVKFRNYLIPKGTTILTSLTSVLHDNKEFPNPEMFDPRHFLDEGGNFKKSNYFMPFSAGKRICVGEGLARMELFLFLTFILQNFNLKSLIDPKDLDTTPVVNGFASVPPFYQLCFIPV
Sphingosine 1-phosphate receptor 4, sequence (O95977 whole entry): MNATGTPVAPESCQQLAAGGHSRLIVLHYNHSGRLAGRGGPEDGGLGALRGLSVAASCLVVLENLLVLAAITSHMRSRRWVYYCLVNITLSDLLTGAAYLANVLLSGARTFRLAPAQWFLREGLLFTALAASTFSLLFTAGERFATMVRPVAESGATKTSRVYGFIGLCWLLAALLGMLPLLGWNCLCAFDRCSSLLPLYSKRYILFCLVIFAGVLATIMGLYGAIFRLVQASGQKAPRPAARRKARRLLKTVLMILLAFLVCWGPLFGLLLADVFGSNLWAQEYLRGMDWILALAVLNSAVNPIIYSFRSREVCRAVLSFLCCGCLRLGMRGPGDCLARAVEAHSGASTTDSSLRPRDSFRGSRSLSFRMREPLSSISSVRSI
Cytochrome P450 2D6, sequence (P10635 whole entry): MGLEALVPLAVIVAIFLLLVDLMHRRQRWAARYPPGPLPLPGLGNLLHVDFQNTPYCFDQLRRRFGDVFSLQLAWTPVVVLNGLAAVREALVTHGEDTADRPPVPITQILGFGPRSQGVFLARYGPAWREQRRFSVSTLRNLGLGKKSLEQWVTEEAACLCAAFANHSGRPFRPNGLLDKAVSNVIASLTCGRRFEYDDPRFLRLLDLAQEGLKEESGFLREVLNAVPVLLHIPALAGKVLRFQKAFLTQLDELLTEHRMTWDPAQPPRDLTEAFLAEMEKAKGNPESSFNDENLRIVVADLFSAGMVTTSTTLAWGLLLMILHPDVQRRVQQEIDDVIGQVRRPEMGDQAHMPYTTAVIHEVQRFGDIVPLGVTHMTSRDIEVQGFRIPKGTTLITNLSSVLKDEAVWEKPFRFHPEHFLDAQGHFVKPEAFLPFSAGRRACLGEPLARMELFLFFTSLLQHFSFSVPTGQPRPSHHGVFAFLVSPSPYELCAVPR
Sphingosine 1-phosphate receptor 3, sequence (Q99500 whole entry): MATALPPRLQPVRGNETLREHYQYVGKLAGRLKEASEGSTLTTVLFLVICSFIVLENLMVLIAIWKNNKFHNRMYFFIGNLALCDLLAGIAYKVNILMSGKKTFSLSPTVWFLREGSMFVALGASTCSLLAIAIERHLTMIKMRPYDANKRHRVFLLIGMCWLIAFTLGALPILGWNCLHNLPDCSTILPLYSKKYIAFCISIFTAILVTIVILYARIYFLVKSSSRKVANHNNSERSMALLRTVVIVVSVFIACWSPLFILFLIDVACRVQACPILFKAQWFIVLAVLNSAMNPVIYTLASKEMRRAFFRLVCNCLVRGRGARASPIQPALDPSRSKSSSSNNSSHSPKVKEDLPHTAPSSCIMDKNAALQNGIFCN
Tumor necrosis factor, sequence (P01375 whole entry, the tested form may be a part): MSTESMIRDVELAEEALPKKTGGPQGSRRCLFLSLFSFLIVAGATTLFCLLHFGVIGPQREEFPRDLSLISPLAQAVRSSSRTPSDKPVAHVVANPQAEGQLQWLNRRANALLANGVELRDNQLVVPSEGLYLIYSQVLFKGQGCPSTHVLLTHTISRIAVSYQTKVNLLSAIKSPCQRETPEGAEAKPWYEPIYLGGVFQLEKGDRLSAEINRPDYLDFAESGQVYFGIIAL
Nucleotide-binding oligomerization domain-containing protein 1, sequence (Q9Y239 whole entry, the tested form may be a part): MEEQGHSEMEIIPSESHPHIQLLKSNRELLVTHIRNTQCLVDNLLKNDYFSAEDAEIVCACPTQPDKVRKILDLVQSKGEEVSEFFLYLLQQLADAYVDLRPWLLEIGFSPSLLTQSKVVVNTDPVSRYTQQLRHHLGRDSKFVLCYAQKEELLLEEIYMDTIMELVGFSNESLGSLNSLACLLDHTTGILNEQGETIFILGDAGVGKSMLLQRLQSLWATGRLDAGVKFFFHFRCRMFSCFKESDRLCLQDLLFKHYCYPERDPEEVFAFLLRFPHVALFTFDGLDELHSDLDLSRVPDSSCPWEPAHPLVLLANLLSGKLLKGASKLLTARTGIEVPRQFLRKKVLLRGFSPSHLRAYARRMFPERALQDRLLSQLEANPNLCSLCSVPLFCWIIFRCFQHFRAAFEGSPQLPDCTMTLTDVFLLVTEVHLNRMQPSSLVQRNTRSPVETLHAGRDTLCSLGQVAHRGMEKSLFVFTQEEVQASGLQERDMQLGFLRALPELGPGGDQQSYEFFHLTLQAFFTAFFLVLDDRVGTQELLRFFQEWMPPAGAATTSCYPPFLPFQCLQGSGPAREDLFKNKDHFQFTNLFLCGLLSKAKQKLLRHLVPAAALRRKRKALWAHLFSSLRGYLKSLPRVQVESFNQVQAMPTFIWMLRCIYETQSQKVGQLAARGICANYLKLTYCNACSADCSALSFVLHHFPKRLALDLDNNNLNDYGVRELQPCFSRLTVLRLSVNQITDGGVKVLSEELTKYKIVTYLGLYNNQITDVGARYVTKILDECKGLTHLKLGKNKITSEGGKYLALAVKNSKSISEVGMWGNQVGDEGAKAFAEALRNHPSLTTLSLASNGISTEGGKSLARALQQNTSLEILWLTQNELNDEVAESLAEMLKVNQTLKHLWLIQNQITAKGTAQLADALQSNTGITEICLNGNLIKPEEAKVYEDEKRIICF
Sphingosine 1-phosphate receptor 5, sequence (Q9H228 whole entry): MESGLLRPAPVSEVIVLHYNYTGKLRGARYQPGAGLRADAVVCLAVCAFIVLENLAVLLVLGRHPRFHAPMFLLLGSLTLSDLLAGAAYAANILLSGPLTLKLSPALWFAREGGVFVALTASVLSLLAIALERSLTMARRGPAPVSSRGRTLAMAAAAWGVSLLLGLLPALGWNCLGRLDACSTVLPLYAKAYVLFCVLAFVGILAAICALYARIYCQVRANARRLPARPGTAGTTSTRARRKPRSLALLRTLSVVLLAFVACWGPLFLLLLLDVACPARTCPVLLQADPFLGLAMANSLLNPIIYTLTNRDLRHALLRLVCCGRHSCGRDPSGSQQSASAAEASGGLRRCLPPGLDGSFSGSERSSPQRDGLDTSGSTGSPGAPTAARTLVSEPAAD

Q: What does the source list for `CC(C)(C)NC(=S)NNC=C1C=C(Br)C(=O)C(Br)=C1`?
A: IC50 (HEK293 [1]): > 20 µM (inactive); IC50 (Tumor necrosis factor): 15.6 µM (active); IC50 [2]: 7.93 µM (active); IC50 [3]: 7.29 µM (active)

Q: With `CCCCn1c(/N=C/c2ccc3c(c2)OCO3)nc2ccccc21` as the molecule, how does the AC50 [4] read?
A: The AC50 was 60 µM (active).

Q: For `Cc1ccc(OCCOc2ccc(Cl)cc2Cl)c([N+](=O)[O-])n1`, which EC50 [5] is on record?
A: The EC50 was 0.529 µM (active).

Q: What about the EC50 [6] of the same molecule?
A: Its EC50 is > 50 µM (inactive).

Q: What about the EC50 [7] of the same molecule?
A: The EC50 was > 49.8 µM (inactive).

Q: What about the EC50 [8] of the same molecule?
A: Its EC50 is > 50 µM (inactive).

Q: What about the EC50 [9] of the same molecule?
A: Its EC50 is > 50 µM (inactive).

Q: And the EC50 [10]?
A: The EC50 was > 50 µM (inactive).

Q: For `CC(=O)c1cccc(NC(=O)c2ccc([N+](=O)[O-])o2)c1`, which IC50 (HEK293 [11]) is on record?
A: Its IC50 is 37.1 µM (inactive).

Q: And the IC50 (Jurkat)?
A: Its IC50 is 27.6 µM (inactive).

Q: And the IC50 (HEK293 [12])?
A: The IC50 was 69.3 µM (inactive).

Q: Which IC50 [13] does the source give for `O=C(Cc1ccc2c(c1)OCO2)NN=Cc1ccc([N+](=O)[O-])o1` here?
A: Its IC50 is 21 µM (inactive).

Q: And the IC50 (Exodeoxyribonuclease V)?
A: The IC50 was > 39.5 µM (inactive).

Q: And the AC50 [14]?
A: The AC50 was 8.55 µM (active).

Q: With `Cc1nn(-c2ccc(F)cc2)c(Cl)c1/C=C(\CCC(=O)O)c1nc2ccccc2s1` as the molecule, how does the AC50 (Cytochrome P450 2C9) read?
A: The AC50 was 39.8 µM (inconclusive).

Q: And the AC50 [15]?
A: The AC50 was 18.7 µM (active).

Q: And the AC50 [16]?
A: The AC50 was 23.5 µM (active).

Q: For `CC1=C(C(=O)O)N2C(=O)[C@@H](NC(=O)[C@@H](N)C3=CCC=CC3)[C@@H]2SC1`, which AC50 (Cytochrome P450 2C19) is on record?
A: The AC50 was “inconclusive”.

Q: And the AC50 (Cytochrome P450 2D6)?
A: Its AC50 is “inconclusive”.

Q: With `O=C(O)c1cc(-c2ccc(/C=c3\sc4nc5ccc(Br)cc5n4c3=O)o2)ccc1Cl` as the molecule, how does the IC50 [17] read?
A: Its IC50 is 1.42 µM (active).

Q: What about the IC50 [18] of the same molecule?
A: Its IC50 is 12 µM (active).

Q: And the IC50 [19]?
A: Its IC50 is 3.97 µM (active).
